Laboratory results taken from patent US20090234122A1, “CYANINE DYE AND OPTICAL RECORDING MEDIUM” (priority 2005, published 2009).

Legend:
Assay type in all cases: physicochemical
[1] = Lightfastness of cyanine dye thin membranes under xenon lamp irradiation; conditions: thin membrane on glass, 180 W/m^2, 5.5 hours
Method: The solution was in conventional manner dropped to homogeneity over the surface of either side of a polished glass substrate, 5 cm×5 cm, followed by rotating the glass substrate at a rate of 1,000 rpm/min for one minute to homogeneously apply the solution over the substrate and then drying the substrate by blowing hot air or cold air in this order to form a thin membrane of any one of the cyanine dyes of the present invention.
The cyanine dyes were measured for transmittance (T0) at the wavelengths of their absorption maxima (about 450 nm), while a 7.5 W xenon lamp was fixed apart from the glass substrate at a prescribed intervals and irradiated therewith (irradiated energy of 180 W/m^2 when measured on the surface of the substrate) for 5.5 hours while blowing cold air to the substrate. Thereafter, the substrates were immediately measured for transmittance (T) at the wavelengths of absorption maxima of the cyanine dyes and the residual percentages (%) thereof were calculated by assigning the obtained transmittances T and T0 the equation 1. In parallel, similarly as in the above, thin membranes, as controls 1 to 4, formed with any one of the compounds represented by Chemical Formulae 33, 37, 40 and 41; thin membranes, as controls 5 to 8, formed with any one of the compounds represented by Chemical Formulae 33, 37, 40 and 41 in combination with the azo metal complex presented by Chemical Formula 34 as a light resistant improver; and thin membranes, as controls 9 to 10, formed with any one of the compounds represented by Chemical Formulae 42 and 43, and these thin membranes were similarly treated as in the above, and measured for transmittances T and T0 at wavelengths of their absorption maxima for use as controls.

[2] = Decomposition point on DSC analysis; conditions: onset temperature of exothermic peak induced by decomposition
Description: The decomposition points of organic dye compounds such as cyanine dyes can be determined on, for example, commonly used differential scanning calorimetric analysis (abbreviated as “DSC”, hereinafter).
The melting point means a peak top temperature of endothermic peak during temperature increase on DSC analysis, while the decomposition point means an onset temperature of exothermic peak induced by decomposition during temperature increase on DSC analysis. These are applicable to the following measurements.

[3] = Solubility in organic solvents at 20° C.; conditions: N,N-dimethylformamide, methanol, TFP, methylethylketone, acetonitrile, chloroform
[4] = in combination with lightfastness improver Chemical Formula 34 (azo metal complex)
[5] = transmittance at absorption maximum (about 450 nm), lightfastness improver: Non

Row | Compound | Residual percentage (%) of dye [1, 4] [%] | Residual percentage (%) of dye [1, 5] [%] | decomposition point [2] | solubility in organic solvents [3]
1 | CCN1C(=CC2=[N+](CC)c3ccccc3C2(C)Cc2ccccc2)C(C)(Cc2ccccc2)c2ccccc21 (stereo not shown) [Chemical Formula 33] | 89.9 | 29.4 | around 212 °C | 
2 | CN1C(=CC2=[N+](C)c3ccccc3C23CCCCC3)C2(CCCCC2)c2ccccc21 [Chemical Formula 40] | 91.5 | 35.6 | around 227 °C | 
3 | CN1C(=CC2=[N+](C)c3ccccc3C2(C)Cc2ccccc2)C(C)(C)c2ccccc21 (stereo not shown) [Chemical Formula 37] | 90.3 | 31.2 | around 238 °C | 
4 | CN1C(=CC2=[N+](C)c3ccccc3C2(C)Cc2ccccc2)C(C)(C)c2ccccc21 (stereo not shown) [Chemical Formula 20] |  | 99.1 | ~273 °C | satisfactory solubilities with no actual hindrance

Continued, in another order:

Row | Residual percentage (%) of dye [1, 4] [%] | Residual percentage (%) of dye [1, 5] [%] | decomposition point [2] | Compound | solubility in organic solvents [3]
5 |  | 15.3 |  | CN1C(=CC2=[N+](C)c3ccccc3C2(C)C)C(C)(C)c2ccccc21 [Chemical Formula 42] | 
6 | 93.8 | 33.8 | around 240 °C | CN1C(=CC2=[N+](C)c3ccccc3C23CCCCC3)C(C)(C)c2ccccc21 [Chemical Formula 41] | 
